Tests used:
[1] = test system: San Carlos virus; assay: Inhibition of cytopathic activity (CPE) of San Carlos virus in HEL tissue culture; type: cell-based, San Carlos virus (adenovirus); settings: for CPE with 100 TCID50 doses of San Carlos virus: HEL cells
Protocol: (§1) The anti-viral activity of 2,4-dimethylphenol was studied in the following manner. Tissue cultures derived from human embryonic lung (HEL) were grown and maintained as monolayers in 32 ounce prescription bottles using growth medium consisting of 85% synthetic mixture No. 199 plus 15% unfiltered fetal bovine serum (FBS) adjusted to pH 7.4. Tube cultures of HEL cells were prepared in similar fashion and used in assays for anti-viral activity. During chemotherapy tests, the maintenance medium consisted of synthetic mixture No. 199 with 7.5% FBS. The virus spectrum in tissue culture consisted of two DNA viruses, a San Carlos virus isolated by Davis [see Science 133, 2059, 1961] and later identified as an adenovirus, and the HF strain of herpes simplex virus. In addition, a RNA virus represented by measles was included in the examples.
(§2) In performing the initial assays, the tissue cultures were treated prophylactically and the virus was treated in vitro with decreasing 2,4-dimethylphenol concentrations ranging from […] (2 × 10^-6) to 2 attograms (ag) (2 × 10^-18) per ml. The procedure consisted of pretreating tube cultures of HEL cells for two to three days with growth medium containing varying concentrations of 2,4-dimethylphenol. After the prophylactic treatment, the test fluids were removed and replaced with fresh maintenance medium. At this time, 200 TCID50 doses of virus were mixed in vitro with the same decreasing concentrations of the distillate used to pretreat the cells, then the mixture was inoculated into replicate culture of HEL cells so that the final incolum consisted of 100 TCID50 doses of virus in tubes with 2,4-dimethylphenol at the same level used to prophylactically treat the cells.
(§3) The same number of infected control tubes were handled in the same way except that 2,4-dimethylphenol was omitted from all media. Culture tubes were rotated at 37° C. and examined daily for a period of 7 days for cytopathic activity (CPE). […] By the same token, the CPE of herpes virus was inhibited by both the 10^-12 and 10^-15 level, possibly indicating two active components. […]

[2] = test system: Herpes simplex virus (HF strain); assay: Inhibition of cytopathic activity (CPE) of herpes virus in HEL tissue culture; type: cell-based; settings: for CPE with 100 TCID50 doses of Herpes virus: HEL cells
Protocol: as §1, §2, §3

[3] = test system: Measles; assay: Inhibition of cytopathic activity (CPE) of measles virus in HEL tissue culture; type: cell-based; settings: for CPE with 100 TCID50 doses of Measles virus: HEL cells
Protocol: as §1, §2, §3

[4] = test system: San Carlos virus; assay: Dimethylphenols against San Carlos virus in tissue culture (human embryonic lung), CPE; type: cell-based, San Carlos virus (adenovirus); settings: for CPE with TCID50 doses of San Carlos virus: human embryonic lung, 100 TCID50
[5] = test system: chronic respiratory disease (CRD); assay: Treatment of chronic respiratory disease (CRD) in spontaneously hypertensive (SH) rats; type: in vivo, rat (SH); on Dead animals: tested at 0.001 ppm; on Ill animals: tested at 0.001 ppm; on Total number of rats: tested at 0.001 ppm; on Well animals: tested at 0.001 ppm; on animals showing a trace of secretions around their necks: tested at 0.001 ppm; on rats alive in the treated group: tested at 0.001 ppm
Protocol: Treatment of Chronic Respiratory Disease (CRD) in laboratory rats: chronic respiratory disease symptoms include coughing and wheezing accompanied by nasal secretions.
One-half of a colony of spontaneously hypertensive (SH) rats was treated with 2,4-dimethylphenol in their drinking water at a concentration of one part per billion. The other half of this colony was given only tap water, and both groups observed for 76 days. The second experiment was with a highly inbred strain (GM) of rats that were about to expire, because of chronic respiratory infection. […] Both groups, the SH rats and the GM rats, were not breeding because of their infections and were in seriously poor health.
They were only 42 SH rats left in the colony. They were divided into two groups of 21 rats each. Approximately one-half the sick rats were selected for each group. […] This was best observed as a brown secretion from the nose and wiped around the neck by the rat's front paws. The experimental group was treated continuously with one part per billion (1 PPB) of 2,4-dimethylphenol in their drinking fluid. Certain of these rats were so ill that they were near death when the experiment was started and they died in spite of treatment.

[6] = day 14, 1 PPB in drinking water, SH rats
[7] = day 22, 1 PPB in drinking water, SH rats
[8] = day 29, 1 PPB in drinking water, SH rats
[9] = day 36, 1 PPB in drinking water, SH rats
[10] = day 43, 1 PPB in drinking water, SH rats

In the case of `Cc1ccc(O)c(C)c1` [2,4-dimethylphenol], the “CPE with 100 TCID50 doses of San Carlos virus” value ([1]; 2,4-dimethylphenol 10^-4 grams 2X) is reported as 4+ (100% of cells infected with selected virus), the “CPE with 100 TCID50 doses of San Carlos virus” value ([1]; 10^-5 grams 2X) is reported as 2+ (50% of cells infected with selected virus) and the “CPE with 100 TCID50 doses of San Carlos virus” value ([1]; 10^-6 grams 2X) is reported as 2+ (50% of cells infected with selected virus). The “CPE with 100 TCID50 doses of San Carlos virus” value ([1]; 10^-7 grams 2X) was 1+ (25% of cells infected with selected virus), the “CPE with 100 TCID50 doses of San Carlos virus” value ([1]; 10^-8 grams 2X) was 1+ (25% of cells infected with selected virus) and the “CPE with 100 TCID50 doses of San Carlos virus” value ([1]; 10^-9 grams 2X) was 1+ (25% of cells infected with selected virus). The “CPE with 100 TCID50 doses of San Carlos virus” value ([1]; 10^-10 grams 2X) was 1+ (25% of cells infected with selected virus), the “CPE with 100 TCID50 doses of San Carlos virus” value ([1]; 10^-11 grams 2X) was 1+ (25% of cells infected with selected virus) and the “CPE with 100 TCID50 doses of San Carlos virus” value ([1]; 10^-12 grams 2X) was 2+ (50% of cells infected with selected virus). For the same molecule, the “CPE with 100 TCID50 doses of San Carlos virus” value ([1]; 10^-13 grams 2X) was 2+ (50% of cells infected with selected virus), the “CPE with 100 TCID50 doses of San Carlos virus” value ([1]; 10^-14 grams 2X) was 3+ (75% of cells infected with selected virus) and the “inhibition of CPE produced by San Carlos virus” value ([1]; picograms, 10^-10 to 10^-12 per ml of medium) was “slight but consistent inhibition”. The “CPE with 100 TCID50 doses of Herpes virus” value ([2]; 10^-6 grams 2X) was 3+ (75% of cells infected with selected virus), the “CPE with 100 TCID50 doses of Herpes virus” value ([2]; 10^-7 grams 2X) was 3+ (75% of cells infected with selected virus) and the “CPE with 100 TCID50 doses of Herpes virus” value ([2]; 10^-8 grams 2X) was 2+ (50% of cells infected with selected virus). For the same molecule, the “CPE with 100 TCID50 doses of Herpes virus” value ([2]; 10^-9 grams 2X) was 2+ (50% of cells infected with selected virus), the “CPE with 100 TCID50 doses of Herpes virus” value ([2]; 10^-10 grams 2X) was 2+ (50% of cells infected with selected virus) and the “CPE with 100 TCID50 doses of Herpes virus” value ([2]; 10^-11 grams 2X) was 2+ (50% of cells infected with selected virus). For the same molecule, the “CPE with 100 TCID50 doses of Herpes virus” value ([2]; 10^-12 grams 2X) was 1+ (25% of cells infected with selected virus), the “CPE with 100 TCID50 doses of Herpes virus” value ([2]; 10^-13 grams 2X) was 2+ (50% of cells infected with selected virus) and the “CPE with 100 TCID50 doses of Herpes virus” value ([2]; 10^-14 grams 2X) was 3+ (75% of cells infected with selected virus). For the same molecule, the “CPE with 100 TCID50 doses of Herpes virus” value ([2]; 10^-15 grams 2X) was 1+ (25% of cells infected with selected virus), the “CPE with 100 TCID50 doses of Herpes virus” value ([2]; 10^-16 grams 2X) was 4+ (100% of cells infected with selected virus) and the “CPE with 100 TCID50 doses of Herpes virus” value ([2]; 10^-17 grams 2X) was 4+ (100% of cells infected with selected virus). The “CPE with 100 TCID50 doses of Herpes virus” value ([2]; 10^-18 grams 2X) was 2+ (50% of cells infected with selected virus), the “CPE of herpes virus” value ([2]; both the 10^-12 and 10^-15 level) was “inhibited” and the “CPE with 100 TCID50 doses of Measles virus” value (“CPE … of Measles virus” for short) ([3]; 10^-6 grams 2X) was 3+ (75% of cells infected with selected virus). For the same molecule, the “CPE … of Measles virus” value ([3]; 10^-7 grams 2X) was 3+ (75% of cells infected with selected virus), the “CPE … of Measles virus” value ([3]; 10^-8 grams 2X) was 3+ (75% of cells infected with selected virus) and the “CPE … of Measles virus” value ([3]; 10^-9 grams 2X) was 2+ (50% of cells infected with selected virus). The “CPE … of Measles virus” value ([3]; 10^-10 grams 2X) was 2+ (50% of cells infected with selected virus), the “CPE … of Measles virus” value ([3]; 10^-11 grams 2X) was 2+ (50% of cells infected with selected virus) and the “CPE … of Measles virus” value ([3]; 10^-12 grams 2X) was 2+ (50% of cells infected with selected virus). The “CPE … of Measles virus” value ([3]; 10^-13 grams 2X) was 2+ (50% of cells infected with selected virus), the “CPE … of Measles virus” value ([3]; 10^-14 grams 2X) was 1+ (25% of cells infected with selected virus) and the “CPE … of Measles virus” value ([3]; 10^-15 grams 2X) was 1+ (25% of cells infected with selected virus). The “CPE … of Measles virus” value ([3]; 10^-16 grams 2X) was “± (less than 10% infected)”, the “CPE … of Measles virus” value ([3]; 10^-17 grams 2X) was 1+ (25% of cells infected with selected virus) and the “CPE … of Measles virus” value ([3]; 10^-18 grams 2X) was 0 (no cells infected). The “Measles CPE” value ([3]; concentrations less than the 10^-14 level) was “appeared to be inhibited”, the “CPE with TCID50 doses of San Carlos virus” value (“CPE with TCID50 doses” for short) ([4]; 10^-6 grams 2X) was 3+ (75% of cells infected with selected virus) and the “CPE with TCID50 doses” value ([4]; 10^-7 grams 2X) was 2+ (50% of cells infected with selected virus). The “CPE with TCID50 doses” value ([4]; 10^-8 grams 2X) was “± (less than 10% infected)”, the “CPE with TCID50 doses” value ([4]; 10^-9 grams 2X) was “± (less than 10% infected)” and the “CPE with TCID50 doses” value ([4]; 10^-10 grams 2X) was “± (less than 10% infected)”. The “CPE with TCID50 doses” value ([4]; 10^-11 grams 2X) was 1+ (25% of cells infected with selected virus), the “CPE with TCID50 doses” value ([4]; 10^-12 grams 2X) was 1+ (25% of cells infected with selected virus) and the “CPE with TCID50 doses” value ([4]; 10^-13 grams 2X) was 1+ (25% of cells infected with selected virus). For the same molecule, the “CPE with TCID50 doses” value ([4]; 10^-14 grams 2X) was 2+ (50% of cells infected with selected virus), the “CPE with TCID50 doses” value ([4]; 10^-15 grams 2X) was 2+ (50% of cells infected with selected virus) and the “anti-viral activity against San Carlos virus” value ([4]; at various concentrations) was “exhibit anti-viral activity”. The Dead animals [5, 6] was 1, the Ill animals [5, 6] was 8 and the Well animals [5, 6] was 12. The “Total number of rats” value ([5]; day 14, 1 PPB in drinking water, SH rats, 21 at start) was 21, the Dead animals [5, 7] was 1 and the Ill animals [5, 7] was 7. For the same molecule, the Well animals [5, 7] was 12, the “Total number of rats” value ([5]; day 22, 1 PPB in drinking water, SH rats, 21 at start) was 20 and the Dead animals [5, 8] was 2. For the same molecule, the Ill animals [5, 8] was 4, the Well animals [5, 8] was 13 and the “Total number of rats” value ([5]; day 29, 1 PPB in drinking water, SH rats, 21 at start) was 19. For the same molecule, the Ill animals [5, 9] was 5, the Well animals [5, 9] was 12 and the “Total number of rats” value ([5]; day 36, 1 PPB in drinking water, SH rats, 21 at start) was 17. For the same molecule, the Ill animals [5, 10] was 5, the Well animals [5, 10] was 12 and the “Total number of rats” value ([5]; day 43, 1 PPB in drinking water, SH rats, 21 at start) was 17. The Well animals ([5]; day 76, 1 PPB in drinking water, SH rats) was 12, the “Total number of rats” value ([5]; day 76, 1 PPB in drinking water, SH rats, 21 at start) was 17 and the Ill animals ([5]; day 76, 1 PPB in drinking water, SH rats, minimal infection) was 5. The “infection in the five ill rats” value ([5]; day 76, visual observation, 1 PPB, SH rats) was “minimal infection from visual observation”, the “rats alive in the treated group” value ([5]; end of 76 days, 1 PPB in drinking water, SH rats, 21 at start) was 17 and the “animals showing a trace of secretions around their necks” value ([5]; end of 76 days, of 17 rats alive, 1 PPB, SH rats) was 5. The “breeding and colony health” value ([5]; more than 2 years, 1 PPB in drinking fluid, combined SH groups) was “These animals began to breed, and the colony is now healthy”.
